These results are taken from patent publication US20250057970A1, “TROP2 TARGETING ANTIBODY-DRUG CONJUGATE, AND PREPARATION METHOD AND USE THEREFOR” (priority 2020, published 2025).

The structures appear in SMILES notation. Like-named read-outs stand apart in the source and are kept apart here.

The subject of the assay is NCI-N87 cell line. In words: Killing activity on NCI-N87 before and after cathepsin B digestion. To be noted: NCI-N87, 144 hours, read-out: IC50 (based on SN-38 equivalent). Format: cell-based, human. As to the method:
NCI-N87 cell line was selected as the experimental cell lines. After the sample was incubated in cathepsin B system (100 mM sodium acetate-acetic acid buffer, 4 mM dithiothreitol, pH 5.0) at 37° C. for 4 hours, the obtained sample was diluted with culture medium to different concentrations. 8 concentrations (1.5 to 10-fold dilution) were set from 70 nM to 0.003 nM of SN-38 concentration. […] The IC50 value was calculated by reading the […] data after chemical luminescent staining with CellTiter-Glo® Luminescent Cell Viability Assay.

As for `CCc1c2c(nc3ccc(O)cc13)-c1cc3c(c(=O)n1C2)COC(=O)[C@]3(O)CC` [SN-38, 7-ethyl-10-hydroxycamptothecin, reference compound], the IC50 (After Enzyme Digestion (cathepsin B, pH 5.0, 37° C., 4 hours)) came out at 7.43 nM and the IC50 (Before Enzyme Digestion) was found to be 7.18 nM.
